Paper PMC10451623 (Antioxidants, 2023)

Molecular target: T1, PPARα-LBD (Homo sapiens, UniProt Q07869)
T1 sequence (Q07869 200-468): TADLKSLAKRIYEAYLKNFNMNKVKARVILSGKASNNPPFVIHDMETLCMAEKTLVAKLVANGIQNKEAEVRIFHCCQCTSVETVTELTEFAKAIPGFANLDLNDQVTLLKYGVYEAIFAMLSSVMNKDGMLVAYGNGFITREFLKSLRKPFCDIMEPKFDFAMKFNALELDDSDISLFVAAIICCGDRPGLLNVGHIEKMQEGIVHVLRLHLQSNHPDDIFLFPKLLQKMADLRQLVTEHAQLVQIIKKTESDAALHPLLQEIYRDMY
Experiment: Thermal stability assay using circular dichroism spectroscopy
Assay type: binding
Parameters: Human PPARα-LBD (amino acids 200–468); His tag (pET28a) (N); made in house; host or cells: Rosetta (DE3) pLysS (E. coli)
Conditions: CD at 222 nm; 10 µM LBD; GW7647 at 10 µM
Description: PPARα/δ/γ-LBD proteins (10 µM) were incubated with different concentrations of ligands in buffer C consisting of 20 mM Tris-HCl (pH 8.0), 150 mM NaCl, 1 mM Tris 2-carboxyethylphosphine (TCEP)-HCl, and 10% glycerol. The circular dichroism (CD) spectra were monitored within a 200–260 nm range at increasing temperatures from 30 °C to 70 °C (2 °C/min) using a J-1500 spectropolarimeter equipped with a PTC-510 thermal controller (JASCO, Tokyo, Japan). […] The ligand-induced increases in the Tm values were defined as ∆Tm.
Nuclear receptors, including PPARs, display an increased thermal stability upon ligand binding, which is detectable through CD spectroscopy.
Figure 3 Circular dichroism-based PPARα/δ/γ-LBD thermal stability assay. […] Data are presented as the mean ± SE of three or four (in parentheses) independent experiments. Differences vs. basal levels (with 0.1% DMSO) were statistically assessed by one-way ANOVA, followed by a Dunnett’s post hoc test: * p < 0.05, ** p < 0.01, and *** p < 0.001.

## CSc1ccc(C(=O)/C=C/c2cc(C)c(OC(C)(C)C(=O)O)c(C)c2)cc1 [elafibranor]
  Effect on Tm of PPARα-LBD (in words): did not significantly alter the Tm values

## O=C(O)CCCc1cc2cc(Cl)ccc2n1S(=O)(=O)c1ccc2ncsc2c1 [lanifibranor]
  Effect on Tm of PPARα-LBD (in words): increased the Tm values

## CCO[C@@H](Cc1ccc(OCCn2c(C)ccc2-c2ccc(SC)cc2)cc1)C(=O)O [saroglitazar]
  Effect on Tm of PPARα-LBD (in words): highly increased the Tm values

## CCO[C@H](COc1ccc(C(F)(F)F)cc1)CSc1ccc(OCC(=O)O)c(C)c1 [seladelpar]
  Effect on Tm of PPARα-LBD (in words): increased the Tm values
